In patent publication US12551532B2, “Long-acting amylin receptor agonists and uses thereof” (Eli Lilly and Company, priority 2021, dated 2026):
Starred links: 1 amine or outer side, 2 acyl side, 3 side chain; linkers in the order of their positions; H or OH if unused. Positions of bridges follow the written chain, without caps; N, C: chain ends. Non-standard residues stand in square brackets, D forms with d. Residues, ends and D or L forms follow the SMILES beside them. Groups on a side chain read outwards from the residue. *: point of attachment. C20 diacid = O=C(O)CCCCCCCCCCCCCCCCCCC(=O)*; γGlu = O=C(O)[C@H](CCC(=O)[*:2])N[*:1]; αMeF = C[C@](N)(Cc1ccccc1)C(=O)O; NMeD = CN[C@@H](CC(=O)O)C(=O)O; Orn = NCCC[C@H](N)C(=O)O; CH2 = C([*:1])[*:2]

How the values were obtained:
human CT receptors = molecular target: T1, human CT receptors (Homo sapiens, UniProt P30988); experiment: hCTR cAMP functional activity (HTRF); format: cell-based; conditions: ±SE; UMUC3 cells overexpressing hCTR; relative EC50
T1 construct: expressed in transfected cells
T1 sequence (P30988 25-474): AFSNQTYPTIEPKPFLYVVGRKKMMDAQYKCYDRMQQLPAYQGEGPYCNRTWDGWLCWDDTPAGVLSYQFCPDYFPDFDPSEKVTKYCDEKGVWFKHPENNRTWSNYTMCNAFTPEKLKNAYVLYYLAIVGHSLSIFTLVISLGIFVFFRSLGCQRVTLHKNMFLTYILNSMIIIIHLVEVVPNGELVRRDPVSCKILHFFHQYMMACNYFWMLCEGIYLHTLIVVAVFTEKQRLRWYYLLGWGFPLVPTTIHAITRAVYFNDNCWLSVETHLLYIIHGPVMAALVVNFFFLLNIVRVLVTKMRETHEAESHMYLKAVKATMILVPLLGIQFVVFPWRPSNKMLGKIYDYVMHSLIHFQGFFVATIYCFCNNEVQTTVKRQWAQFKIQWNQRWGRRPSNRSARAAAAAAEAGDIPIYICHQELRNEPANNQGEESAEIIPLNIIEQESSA
In short: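 UM-UC-3 bladder cells stably overexpressing human CT receptor, 1200 cells/well, exposed to peptides in 1:3 dilution series for 1 h at room temperature. Intracellular cAMP measured by HTRF after 60 min lysis/detection, converted to pmol/well from a per-experiment cAMP standard curve.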

hAMY1R = molecular target: T2, hAMY1R (Homo sapiens, UniProt O60894+P30988); experiment: hAMY1R competitive radioligand binding filter assay (125I-rAMY); conditions: ± SE; membranes of hAMY1R overexpressing cells
T2 construct: expressed in transfected cells
T2 sequence (O60894 27-148 partner, one chain of several): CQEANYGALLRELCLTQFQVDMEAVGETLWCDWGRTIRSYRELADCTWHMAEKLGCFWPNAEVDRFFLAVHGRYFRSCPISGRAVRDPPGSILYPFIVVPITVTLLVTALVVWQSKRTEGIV
Description: The equilibrium dissociation constants (Kd) for the various receptor/radioligand interactions are determined from saturation binding analysis using the same reagents and buffers as described below for compound testing.
The receptor binding affinity (Ki) of rAMY, hCT, and hAMY agonist peptides are determined from a competitive radioligand binding filter assay. The assay buffer consists of (in mM) 50 HEPES, pH 7.1, 5 MgCl2, 5 KCl, 0.2% (w/v) bacitracin, 0.003% (w/v) saponin and is used to dilute radioligand and membrane preparation. Binding reactions are carried out in 0.1 mL total reaction volume in a polystyrene 96 deep-well assay block. […] Test compounds and non-specific binding (NSB—defined as 300 nM rAMY) are added to aliquots of radioactivity buffer. […] The binding reaction is initiated by the addition of 0.05 mL of 200 μg/mL hAMY1R diluted in assay buffer to the radioactivity. Assay blocks are gently vortexed, sealed with parafilm, and incubated at RT for approximately 20 hours. […] At the end of the incubation, bound ligand is separated from free by addition of an ice cold quench buffer consisting of 100 mM NaCl, 50 mM TRIS-HCl pH 7.1 and immediately collected over the filter mat by vacuum filtration with a TomTec 96 well filter harvester using the following filter protocol (Dry time, 7; Cycle 3 repeat, 0; Wash Time, 1; Soak Time, 1; 1st Aspirate Time, 4; Wash/Aspirate Time, 7; 2nd Aspirate, 4; air pressure 2 PSI).

human dendritic cells = format: cell-based
Description: MAPPS profiles the MHC-II presented peptides on human dendritic cells treated with tested molecules. CD14+ cells, isolated from the PBMCs of normal human donors, are cultured and differentiated into immature DCs by incubation with IL-4 and GM-CSF. On day 4, culture media is replaced with fresh media containing tested molecules. On day 5, LPS is added to transform the cells into mature DCs. On day 6, cells are lysed in RIPA buffer with protease inhibitors. Immunoprecipitation of MHC-II complexes are performed using biotinylated anti-MHC-II antibody coupled to streptavidin beads. The bound complex is eluted and filtered. The isolated MHC-II peptides are analyzed by a mass spectrometer. Peptide identifications are generated by an internal proteomics pipeline using search algorithms with no enzyme and a bovine/human database with test sequences appended to the database. A KNIME workflow is used to process the identification files from the samples. Peptides identified from the test articles are aligned against the parent sequence of the test molecule. The output is used to determine the percentage of donors displaying MHC-II peptides from regions of the test molecule. Compound II, Compound IV, Compound VI, Compound VIII, a compound representative of U.S. Pat. No. 9,023,789 (hereinafter “Compound '789”), and Pramlintide are tested in the MAPPs assay.

**Q.** Which results are given for `CC[C@H](C)[C@H](NC(=O)[C@@H]1CCCN1C(=O)CNC(=O)[C@H](Cc1ccccc1)NC(=O)[C@H](CC(=O)O)N(C)C(=O)[C@H](CC(N)=O)NC(=O)[C@H](CO)NC(=O)[C@H](CO)NC(=O)[C@H](CCCNC(=N)N)NC(=O)[C@@H](NC(=O)[C@H](CC(C)C)NC(=O)[C@](C)(Cc1ccccc1)NC(=O)[C@H](CCC(=O)O)NC(=O)[C@H](C)NC(=O)[C@H](CC(C)C)NC(=O)[C@H](CCCN)NC(=O)CNC(=O)[C@@H](NC(=O)[C@H](C)NC(=O)[C@@H]1CSCSC[C@H](NC(=O)[C@@H](N)CCCCNC(=O)CC[C@H](NC(=O)CC[C@H](NC(=O)CCCCCCCCCCCCCCCCCCC(=O)O)C(=O)O)C(=O)O)C(=O)N[C@@H](CCC(=O)O)C(=O)N[C@@H]([C@@H](C)O)C(=O)N[C@@H](C)C(=O)N[C@@H]([C@@H](C)O)C(=O)N1)[C@@H](C)O)C(C)C)C(=O)N[C@@H](CC(C)C)C(=O)N1CCC[C@H]1C(=O)N1CCC[C@H]1C(=O)N[C@H](C(=O)N[C@@H](CCC(=O)O)C(=O)N[C@H](C(=O)NCC(=O)N[C@@H](CO)C(=O)N[C@@H](CC(N)=O)C(=O)N[C@H](C(=O)N[C@@H](Cc1ccc(O)cc1)C(N)=O)[C@@H](C)O)C(C)C)[C@@H](C)O` [Compound VI, KCETATCATG-Orn-LAE-αMeF-LVRSSN-NMeD-FGPILPPTEVGSNTY-NH2] (H-K([γGlu-γGlu-C20 diacid])CETATCATG[Orn]LAE[αMeF]LVRSSN[NMeD]FGPILPPTEVGSNTY-NH2; linker 2-7 via CH2)?
**A.** EC50 (human CT receptors): 13.2 ± 2.23 nM; Ki (hAMY1R): 0.0445 ± 0.0082 nM; MAPPS Assay donors displayed peptides (human dendritic cells): no peptides; MAPPS Assay immunogenicity risk (human dendritic cells): Low Risk; peptides displayed on MHC-II complexes (human dendritic cells): no peptides displayed on MHC-II complexes
